In USRE35321E, “Tetrazoleacetic acid derivatives having aldose reductase inhibitory activity” (Wakamoto Pharmaceutical Co., Ltd., priority 1990, dated 1996):

Experiments:
[1] = test system: accumulation of sorbitol in sciatic nerve; assay: Inhibiting the accumulation of sorbitol in sciatic nerve of streptozotocin diabetic rats; assay type: in vivo, Sprague-Dawley male rats; settings: twice a day for 5 days
Method: Groups of 6 to 8-weeks-old Sprague-Dawley male rats (4 aminals per group) were fasted for 18 hours and streptozotocin was injected through the tail vein in a dose of 60 mg/kg to thus obtain diabetic rats. Immediately after the administration of the streptozotocin, each compound to be tested was orally administered to these rats in the form of a suspension at a dose of 10 mg/kg, 30 mg/kg and 50 mg/kg (each was suspended in a 0.5% sodium carboxymethyl cellulose solution) twice a day (9 o'clock in the morning and 5 o'clock in the afternoon) for 5 days. During the test, the rats took diet and drank water freely. 4 Hours after the final administration of the drug in the 5th day's morning (9 o'clock in the morning), the rats were sacrificed and then the sciatic nerve thereof was removed to determine the amount of sorbitol accumulated therein.
The results are expressed in the percentage obtained while the value obtained on the control to which any drug was not administered is defined to be 100.

aldose reductase = molecular target: T1, aldose reductase (Rattus norvegicus, UniProt P07943); assay: Aldose reductase inhibitory effect (enzyme from crystalline lenses, DL-glyceraldehyde substrate); assay type: biochemical, rat (male SD); settings: 10 mM DL-glyceraldehyde, pH 6.2, 30° C.
T1 construct: Then their crystalline lenses were immediately removed and stored at -80° C; The lenses were homogenized; from tissue; host or cells: crystalline lenses of six-week-old male SD rats
Method: Six-weeks-old male SD rates were anesthetized with ether and killed. Then their crystalline lenses were immediately removed and stored at -80° C. […] All operations were conducted at 4° C. and the enzyme solution was stored at -80° C.
More specifically, 0.1 ml of DL glyceraldehyde (final concentration: 10 mM) was added to 0.9 ml of 100 mM sodium potassium phosphate buffer (pH 6.2) which contained lithium sulfate (final concentration: 400 mM), reduced nicotinamide adenine dinucleotide phosphate (final concentration: 0.15 mM), the enzyme solution, and the compound to be evaluated (final concentration: 10^-6 M, 10^-7 M or […]), and then the reaction was conducted at 30° C. for 5 minutes. During the reaction, the change in the absorbance at 340 nm with time was monitored. The maximum reducing rate of the absorbance (U) during the reaction was determined. By subtracting, from this value, the maximum reducing rate (Uo) at 340 nm of the reaction solution before the addition of the substrate (DL-glyceraldehyde), the reaction rate (V=U-Uo) was calculated as a true reaction rate in the presence of the compound to be tested.
The same procedure was repeated except for the absence of the compound to be tested. A true reaction rate (Vo) in case the enzyme was not inhibited was calculated (Vo =U'-Uo '). The aldose reductase inhibitory activity of the test compounds was determined according to the following formula:
Rate of Inhibition (%)=(Vo -V)/Vo ×100

Row | SMILES | Rate of Inhibition of Sorbitol Accumulation ([1]; 10 mg/kg oral) | Rate of Inhibition of Sorbitol Accumulation ([1]; 30 mg/kg oral) | IC50 (aldose reductase)
1 | O=C(O)Cn1nnnc1-c1ccsc1 [Example 2-5, [5-(3-thienyl)tetrazol-1-yl] acetic acid] | 73% | 90% | 21 nM
2 | O=C(O)Cn1nnnc1-c1ccoc1 [Example 2-7, [5-(3-furyl)tetrazol-1-yl] acetic acid] | 46% | 77% | 30 nM
